Reference: patent US20110251104A1, “COMPOSITIONS AND METHODS FOR DETECTING DEACETYLASE ACTIVITY” (priority 2010, published 2011)

Molecular target: T1, Sirt1 (Homo sapiens, UniProt Q96EB6)
T1 construct: purchased
T1 sequence (Q96EB6 1-747): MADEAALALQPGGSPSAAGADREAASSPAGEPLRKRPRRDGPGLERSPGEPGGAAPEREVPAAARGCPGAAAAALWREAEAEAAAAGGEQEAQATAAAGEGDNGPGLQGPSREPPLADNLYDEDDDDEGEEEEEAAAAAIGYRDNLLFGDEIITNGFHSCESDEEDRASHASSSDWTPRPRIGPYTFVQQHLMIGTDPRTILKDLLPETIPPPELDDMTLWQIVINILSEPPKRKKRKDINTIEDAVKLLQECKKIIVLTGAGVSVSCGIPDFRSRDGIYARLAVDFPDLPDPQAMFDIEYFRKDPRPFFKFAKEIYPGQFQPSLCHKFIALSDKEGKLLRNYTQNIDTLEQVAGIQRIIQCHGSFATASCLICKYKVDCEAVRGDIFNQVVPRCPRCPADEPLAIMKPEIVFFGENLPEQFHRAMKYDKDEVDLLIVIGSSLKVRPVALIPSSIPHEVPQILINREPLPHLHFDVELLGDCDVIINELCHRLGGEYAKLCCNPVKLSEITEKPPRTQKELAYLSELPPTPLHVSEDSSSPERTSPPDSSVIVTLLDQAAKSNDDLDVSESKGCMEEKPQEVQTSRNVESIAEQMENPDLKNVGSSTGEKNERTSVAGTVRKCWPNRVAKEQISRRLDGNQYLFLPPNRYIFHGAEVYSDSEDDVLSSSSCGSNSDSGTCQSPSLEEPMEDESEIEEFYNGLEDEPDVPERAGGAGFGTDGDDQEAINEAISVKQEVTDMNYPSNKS
Assay: Km determination for SIRT1 substrates by RapidFire mass spectrometric quantification of acetyl-ADPr
Assay type: biochemical
Details: room temperature, 50 mM Tris pH 7.5, 1/1500 dilution of enzyme, acetyl-ADPr detection
Text: A high-throughput in vitro assay using the current invention was developed against a commercially available SIRT1 enzyme preparation. The assay was then used to fully characterize the enzyme preparation through a series of kinetic and end-point assays. Commercially available ADP-ribose was used to develop mass spectrometric methods and separation techniques for sensitive and selective detection in the assay. A quantitative analysis method for acetyl-ADPr, a compound that has a chemical structure and properties similar to ADP-ribose, was developed based on the method developed for ADP-ribose.
Next, ADP-ribose was dissolved at a concentration of 1.0 micromolar in an assay buffer consisting of 50 mM Tris pH 7.5 containing 137 mM NaCl, 2.7 mM KCl, 1 mM MgCl2, 0.1% BSA, 1 mM NAD^+. Separation conditions to purify ADP-ribose from the assay buffer for mass spectrometric analysis were developed on a RapidFire® 200 High-Throughput Mass Spetrometry system. The optimized conditions for sample desalting were determined to be a sample wash with water for 3 seconds at a flow rate of 1.5 mL/min and sample elution with a 2:1:1 solution of water:acetonitrile:acetone containing 5 mM ammonium acetate for 3.5 seconds at a flow rate of 1.25 mL/min. […]

Km: 54 ± 1 µM
Structure (SMILES): NC(=O)c1ccc[n+]([C@@H]2O[C@H](COP(=O)([O-])OP(=O)(O)OC[C@H]3O[C@@H](n4cnc5c(N)ncnc54)[C@H](O)[C@@H]3O)[C@@H](O)[C@H]2O)c1 [NAD+, nicotimamide adenine dinucleotide]
